Assay [1] has as its system miR-17. The assay is described as follows: Ribonuclease activity assay with DC or ON and RNase H, miR-17. Type of assay: biochemical. The settings on record: for total extent of miRNA cleavage in the presence of RNase H: miRNA 1 µM, DC or ON 20 µM, buffer (2) pH 7.8, 37 °C, at plateau, by 2 h. On the procedure: (§1) It is known that DNA-like antisense oligonucleotides after binding to target RNAs form a substrate for intracellular endonuclease RNases H. RNA hydrolysis in RNA-DNA heteroduplex by RNase H1 occurs at a distance of 6–10 nucleotides from the 5′-end of RNA (approximately one turn of the helix). Our design of the Dual conjugates here was carried out in such a way to ensure that their heteroduplexes with the matching miRNA sequences could serve as potential substrates for RNase H. To achieve that, we ensured that the length of the oligonucleotide recognition motifs A and B within the DC was 8–10 nt, which was expected to be sufficient for interaction and cleavage by RNase H (see Figure 1 and Table 1). As indicated above, a few adenine aromatic basis within each recognition motifs A and B were replaced with 2-aminoadenines to enhance the hybridization ability of the DC with miRNA. […] In order to verify this, as well as to evaluate the ability of RNase H to contribute to the miRNA cleavage catalyzed by DC, we studied the kinetics of the target miRNA cleavage performed (1) by the DC alone; (2) by RNase H, when the target miRNA was hybridized with the nonconjugated Dual oligonucleotide (ON); and (3) by both DC and RNase H present in the same reaction mixture. The study was performed against miR-17, miR-155 and miR-21 using a 20-fold excess of DCs or respective oligonucleotides over the matching miRNA (see Table 1 for sequences).
Figure 6 Cleavage kinetics of 5′-[^32P]-labeled miRNAs by DCs and/or RNase H. (a,d,g). Radioautographs of 18% denaturing PAAG showing the profiles of cleavage of miR-17, miR-155 and miR-21, respectively. Duplexes formed by 5′-[^32P]-miRNA (1 µM) and DC or ON (20 µM) were incubated at 37 °C for 48–72 h. RNase H was taken in the concentration of 5 or 100 u/mL. Lanes Im and T1–imidazole ladder and partial RNA digestion with RNase T1, respectively; control–RNA was incubated in the absence of DC or ON and in the presence of RNase H (100 u/mL); (b,e,h) Time dependency of cleavage of miR-17, miR-155 and miR-21, respectively, by DCs and/or RNase H. Data are presented as mean ± s.e. *—indicates statistically significant difference with p < 0.05; (c,f,i). Positions of miR-17, miR-155 and miR-21 cleavage, respectively, induced by RNase H in duplex with ON (red arrows), and by combination of DC (black arrows) and RNase H. A–2-aminoadenine.
(§2) The reaction mixture (10 µL) containing 20 mM Tris-HCl, pH 7.8, 40 mM KCl, 8 mM MgCl2, 1 mM DTT, 0.02 mg/mL BSA, 800 cpm (Cherenkov’s counting) of [^32P]-miRNA, 1 µM unlabeled miRNA, 20 µM either DC or Dual oligonucleotide was incubated at 37 °C for 20 min then RNase H (5 or 100 U/mL) was added and the mixture was further incubated for 48 h. Aliquots were taken at 0, 1, 6, 24 and 48 h then the reaction was quenched, RNA cleavage products were collected and analyzed as described above.

The subject of assay [2] is miR-155. Kind of assay: Ribonuclease activity assay with DC or ON and RNase H, miR-155. Type of assay: biochemical. On the procedure:
as §1
Figure 6 Cleavage kinetics of 5′-[^32P]-labeled miRNAs by DCs and/or RNase H. (a,d,g). […]
as §2

Assay [3] relates to miR-21. Kind of assay: Gel-retardation assay, hybridization with miR-21. Type of assay: binding. The settings on record: 37 °C, 45 min, mean of 3. The source says: (§3) We carried out a comparative analysis of the hybridization properties of the developed DCs with the corresponding SCs, which were the products of the first stage of the DCs synthesis. As discussed above, each SC consisted of the corresponding oligonucleotide A, which was complementary to the 5′-region of the matching miRNA target, and the catalytic peptide [LRLRG]2, attached to the 5′-end of this oligonucleotide via a thiohexyl linker (linker 2). […] Indeed, the level of binding of DCs to their miRNA targets reached 96, 90, 75, 55% at equimolar concentration (1 μM), and 99, 96, 92 and 69% at 5-fold excess of DCs over miR-17, miR-18a, miR-21 and miR-155, respectively (Figure 2). […]
(§4) The reaction mixture (4 µL) containing 50 mM Tris-HCl, pH 7.0, 200 mM KCl and 1 mM EDTA, 100 cpm (Cherenkov’s counting) of [^32P]-miRNA, 1 μM unlabeled miRNA, a conjugate at a concentration ranging from 0.1 to 10 μM was incubated at 37 °C for 45 min and quenched by adding of a loading buffer (20% ficoll, 0.025% bromophenol blue, 0.025% xylene cyanol). […] Formation of the complex miRNA/conjugate was analyzed by electrophoresis in 15% native PAAG at 4 °C. The gels were analyzed using Molecular Imager FX. The extent of binding of conjugate to miRNA was determined as a ratio of radioactivity measured in the complex to the total radioactivity applied onto the gel lane.

The test system of assay [4] is miR-18a. The assay is described as follows: Gel-retardation assay, hybridization with miR-18a. It is filed as binding. The settings on record: 37 °C, 45 min, mean of 3.
Excerpt: as §3, §4

[5] abbreviates: 5-fold excess of DC over miRNA (1 µM), same buffer.
Where [6] appears, read: equimolar, DC 1 µM : miRNA 1 µM, 50 mM Tris-HCl pH 7.0, 200 mM KCl, 1 mM EDTA.

4 substances from article PMC7287882, “Dual miRNases for Triple Incision of miRNA Target: Design Concept and Catalytic Performance” (Molecules, 2020) can be followed below.

“CTACCTGC–linker 1–[GRLRL]2–linker 2–AAGCACTTTG [miRNA-17-DC, Dual oligonucleotide-peptide conjugate targeted to miR-17: catalytic peptide [LRLRG]2 between two 2-aminoadenine-containing oligodeoxyribonucleotides]”: in assay [1] (RNase H 5 u/mL), the “total extent of miRNA cleavage in the presence of RNase H” value was 44%. In addition, in assay [1] (RNase H 100 u/mL), the “total extent of miRNA cleavage in the presence of RNase H” value is on record as 92%. The “total efficiency of cleavage in the complex with DC relative to the miRNA/ON complex” value in assay [1] (RNase H at both 5 and 100 u/mL) was “more than 1.5 fold”. In assay [1] (after 1 h), the “increase in the rate of cleavage by DC with RNase H compared with DC alone” value is “up to 10 fold” and the “increase in the rate of cleavage by DC with RNase H compared with RNase H alone” value came out at 1.5 fold.
Take “ACCCCTAT–linker 1–[GRLRL]2–linker 2–TTAGCATTAA [miRNA-155-DC, Dual oligonucleotide-peptide conjugate targeted to miR-155: catalytic peptide [LRLRG]2 between two 2-aminoadenine-containing oligodeoxyribonucleotides]”: the “maximum extent of cleavage with DC and RNase H relative to DC alone” value in assay [2] is given as “about 2 fold”. In assay [2] (RNase H 5 u/mL), the “total extent of cleavage in the complex with DC relative to the miRNA/ON complex” value is on record as about 1.5 fold. Besides, the “maximum extent of cleavage with DC and RNase H” value in assay [2] (miRNA 1 µM, DC 20 µM, buffer (2), 37 °C, plateau) is 75%.
Regarding “TCAACATC–linker 1–[GRLRL]2–linker 2–GATAAGCTA [miRNA-21-DC, Dual oligonucleotide-peptide conjugate targeted to miR-21: catalytic peptide [LRLRG]2 between two 2-aminoadenine-containing oligodeoxyribonucleotides]”, the “level of binding of DC to miRNA target” value turned out to be 92% in assay [3] (setting [5]) and 75% in assay [3] (setting [6]).
In the case of “TATCTGC–linker 1–[GRLRL]2–linker 2–ATGCACCTTA [miRNA-18a-DC, Dual oligonucleotide-peptide conjugate targeted to miR-18a: catalytic peptide [LRLRG]2 between two 2-aminoadenine-containing oligodeoxyribonucleotides]”, the “level of binding of DC to miRNA target” value in assay [4] (setting [5]) was 96%; in assay [4] (setting [6]), 90%.
